Measured values: patent US7495027B2, “3-aryl-4-hydroxyfuranone compounds and the human and animal health use thereof” (Wyeth, priority 2003, dated 2009)
Converted amounts (≈) assume the structure as drawn. Read-outs that look alike come from different tables or passages of the source.

What was measured:
[1] = biological target: T1, S. aureus Uridine-diphosphate-N-acetylmuramoyl-L-alanine: D-glutamate liease, MurD (Staphylococcus aureus, UniProt Q2FZ92); assay: biochemical; settings: (S) S. aureus enzyme
T1 sequence (Q2FZ92 1-449): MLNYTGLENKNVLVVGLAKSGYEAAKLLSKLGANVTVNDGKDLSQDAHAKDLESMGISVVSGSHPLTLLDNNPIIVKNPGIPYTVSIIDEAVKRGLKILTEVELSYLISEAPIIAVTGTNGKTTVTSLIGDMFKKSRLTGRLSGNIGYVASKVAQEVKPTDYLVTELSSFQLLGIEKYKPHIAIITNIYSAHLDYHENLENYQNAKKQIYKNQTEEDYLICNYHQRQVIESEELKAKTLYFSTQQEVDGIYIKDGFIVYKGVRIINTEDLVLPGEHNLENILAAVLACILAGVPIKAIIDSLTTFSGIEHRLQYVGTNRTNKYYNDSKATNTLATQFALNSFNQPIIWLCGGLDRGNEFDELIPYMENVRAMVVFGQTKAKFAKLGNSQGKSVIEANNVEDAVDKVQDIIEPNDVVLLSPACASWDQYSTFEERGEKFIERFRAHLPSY
How it was run: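 MurD, which catalyses the fourth step of cell wall biosynthesis, was tested for inhibition by compounds. Compounds were made up as 10 mg/mL DMSO stocks and diluted to 100 μg/mL in 50 mM Tris/HCl, pH 8.5.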

[2] = biological target: E. coli Uridine-diphosphate-N-acetylmuramoyl-L-alanine: D-glutamate liease, MurD (Escherichia coli, UniProt P14900); assay: biochemical; settings: (E) E. coli enzyme
Sequence of E. coli Uridine-diphosphate-N-acetylmuramoyl-L-alanine: D-glutamate liease, MurD (P14900 whole entry): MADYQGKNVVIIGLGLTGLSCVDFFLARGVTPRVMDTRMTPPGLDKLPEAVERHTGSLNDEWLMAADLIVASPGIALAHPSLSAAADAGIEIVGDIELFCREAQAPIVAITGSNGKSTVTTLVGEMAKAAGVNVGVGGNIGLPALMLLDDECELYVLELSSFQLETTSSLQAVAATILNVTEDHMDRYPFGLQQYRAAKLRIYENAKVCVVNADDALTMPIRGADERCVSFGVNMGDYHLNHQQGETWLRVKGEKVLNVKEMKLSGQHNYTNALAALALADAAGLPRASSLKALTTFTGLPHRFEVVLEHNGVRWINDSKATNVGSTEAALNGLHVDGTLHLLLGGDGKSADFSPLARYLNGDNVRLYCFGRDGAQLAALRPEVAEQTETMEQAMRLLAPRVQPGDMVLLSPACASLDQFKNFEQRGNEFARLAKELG
How it was run: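 Final buffer 83 mM Tris/HCl pH 8.0, 50 mM MgCl2, 2 mM ATP. Compounds from 10 mg/mL DMSO stocks diluted to 100 μg/mL in 50 mM Tris/HCl pH 8.5 (working solution, not final assay level).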

[3] = biological target: E. coli Uridine-diphosphate-N-acetvimuramoyl: L-alanine lipase, MurC (Escherichia coli, UniProt P17952); assay: Inhibitory activity against MurC (E. coli); type: biochemical; settings: (E) E. coli enzyme; for IC50: read-out: MurC IC50 (converted)
Sequence of E. coli Uridine-diphosphate-N-acetvimuramoyl: L-alanine lipase, MurC (P17952 whole entry): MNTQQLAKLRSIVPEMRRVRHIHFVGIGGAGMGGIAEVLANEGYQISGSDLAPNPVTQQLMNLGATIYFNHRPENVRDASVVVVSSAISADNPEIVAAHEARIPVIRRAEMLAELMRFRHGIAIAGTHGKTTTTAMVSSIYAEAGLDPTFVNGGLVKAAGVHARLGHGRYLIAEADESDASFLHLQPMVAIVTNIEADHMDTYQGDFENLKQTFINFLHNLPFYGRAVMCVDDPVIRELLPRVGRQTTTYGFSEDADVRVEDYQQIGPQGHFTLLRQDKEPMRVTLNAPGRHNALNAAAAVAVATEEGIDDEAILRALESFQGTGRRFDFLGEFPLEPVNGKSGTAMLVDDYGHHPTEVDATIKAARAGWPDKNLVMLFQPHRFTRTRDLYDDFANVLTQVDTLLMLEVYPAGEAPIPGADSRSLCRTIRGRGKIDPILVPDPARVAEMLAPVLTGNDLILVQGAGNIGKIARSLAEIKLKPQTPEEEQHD

Streptococci = assay: Minimum inhibitory concentration, microdilution broth method, streptococci; type: cell-based; settings: Mueller-Hinton broth with 5% horse blood, 18-22 hours at 35° C.; for MIC: S. pneumo GC 1894
How it was run: (§1)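 MIC by microdilution, NCCLS M7-A5. Media: MH broth (staph, enterococci); MH + 5% lysed horse blood (strep). Strains incl. methicillin-, penicillin- and/or vancomycin-resistant clinical isolates.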

staphylococci = assay: Minimum inhibitory concentration, microdilution broth method, staphylococci; type: cell-based; settings: Mueller-Hinton broth, 18-22 hours at 35° C.; for MIC: Staphylococcus aureus
How it was run: as §1

[4] = S. aureus GC 1131, read-out: MIC S. aureus GC 1131
[5] = S. aureus GC 4543, read-out: MIC S. aureus GC 4543

SMILES | MurD IC50 [1] | MurD IC50 [2] [µg/mL] | MurC IC50 [3] [µg/mL] | MIC S. pneumo GC 1894 (Streptococci) [µg/mL] | MIC S. aureus GC 1131 (staphylococci; S. aureus GC 1131) [µg/mL] | MIC S. aureus GC 4543 (staphylococci; S. aureus GC 4543) [µg/mL] | IC50 [1] [µM] | MIC (Streptococci) [µg/mL] | MIC (staphylococci; [4]) [µg/mL] | MIC (staphylococci; [5]) [µg/mL] | IC50 [2] [µM] | IC50 [3] [µM]
O=C1O/C(=C\c2ccc(-c3cccc(C(F)(F)F)c3)cc2)C(O)=C1c1cccc(C(F)(F)F)c1 | 15 µg/mL | 24 | 11 | <0.125 | 4 (≈ 8.4 µM) | 1 (≈ 2.1 µM) | – | – | – | – | – | –
O=C1O/C(=C\c2ccc(-c3cc(Cl)cc(Cl)c3)cc2)C(O)=C1c1cc(Cl)cc(Cl)c1 | – | 6 | 17 | – | – | – | > 52.3 | < 0.125 | 4 (≈ 8.37 µM) | 0.5 (≈ 1.05 µM) | – | –
O=C1OC(=Cc2ccc(-c3ccccc3)cc2)C(O)=C1c1cccc(C(F)(F)F)c1 (mixture of isomers) [Example 11] | 11 µg/mL | 21 | 4 | <0.125 | 4 | 2 | – | – | – | – | – | –
Cc1ccc(C=C2OC(=O)C(c3ccc(Cl)cc3)=C2O)s1 (mixture of isomers) [Example 13] | 20 µg/mL | > 25 | 4 | 2 | 64 | >128 | – | – | – | – | – | –
O=C1OC(=Cc2cccc3ccccc23)C(O)=C1c1ccc(C=NO)cc1 (mixture of isomers) [Example 73] | >25 (E); >25 (S) μg/mL | – | 19 | 64 | >128 | >128 | – | – | – | – | – | –
O=C1O/C(=C\c2ccc(-c3ccccc3)cc2)C(O)=C1c1cccc(C(F)(F)F)c1 [Example 10] | – | – | – | – | – | – | 31.8 | < 0.125 | 4 (≈ 9.79 µM) | 2 (≈ 4.9 µM) | 51.4 | 9.79
Cc1ccc(C=C2OC(=O)C(c3ccc(Cl)cc3)=C2O)s1 [Example 14] | >25 (E); >25 (S) μg/mL | – | 13 | 64 (≈ 201 µM) | >128 | >128 | – | – | – | – | – | –
O=C1O/C(=C\C2CCCCC2)C(O)=C1c1ccc(Cl)cc1 [Example 15] | – | – | – | – | – | – | > 82 | 0.5 (≈ 1.64 µM) | 64 (≈ 210 µM) | 64 (≈ 210 µM) | > 82 | 55.8
O=C1OC(=CC2CCCCC2)C(O)=C1c1cccc(C(F)(F)F)c1 [Example 16] | >25 (E); >25 (S) μg/mL | – | 7 | 0.5 (≈ 1.48 µM) | 64 (≈ 189 µM) | >128 | – | – | – | – | – | –
O=C1O/C(=C\C2CCCCC2)C(O)=C1c1cccc(C(F)(F)F)c1 [Example 17] | – | – | 10 | – | – | – | > 73.9 | < 0.125 | 32 (≈ 94.6 µM) | > 128 | – | –
COc1ccccc1-c1ccc(/C=C2\OC(=O)C(c3cc(Cl)cc(Cl)c3)=C2O)cc1OC [Example 19] | – | – | – | – | – | – | 36.2 | 0.5 (≈ 1.07 µM) | 2 (≈ 4.26 µM) | 2 (≈ 4.26 µM) | > 53.3 | 12.8
COc1ccccc1-c1ccc(/C=C2\OC(=O)C(c3ccc(Cl)c(Cl)c3)=C2O)cc1OC [Example 20] | – | – | – | – | – | – | 40.5 | 0.5 (≈ 1.07 µM) | 4 (≈ 8.52 µM) | 4 (≈ 8.52 µM) | > 53.3 | 23.4
O=C1O/C(=C\c2cccc(C(F)(F)F)c2)C(O)=C1c1ccc2ccccc2c1 [Example 42] | – | – | 6 | – | – | – | > 65.4 | 8 (≈ 20.9 µM) | 8 (≈ 20.9 µM) | 8 (≈ 20.9 µM) | – | –
O=C1O/C(=C\c2ccc(Cl)cc2)C(O)=C1c1ccc2ccccc2c1 [Example 43] | – | – | – | – | – | – | > 71.7 | 1 (≈ 2.87 µM) | 8 (≈ 22.9 µM) | 8 (≈ 22.9 µM) | > 71.7 | 11.5
O=C1O/C(=C\c2cccc3ccccc23)C(O)=C1c1cccc2ccccc12 [Example 47] | – | – | – | – | – | – | > 68.6 | 16 (≈ 43.9 µM) | 16 (≈ 43.9 µM) | 32 (≈ 87.8 µM) | > 68.6 | 30.2
O=C1O/C(=C\C2CCCCC2)C(O)=C1c1ccc2ccccc2c1 [Example 51] | – | – | 9 | – | – | – | > 78 | < 0.125 | > 128 | 16 (≈ 49.9 µM) | > 78 | –
O=C1O/C(=C\c2ccc3ccccc3c2)C(O)=C1c1ccc2ccccc2c1 [Example 52] | – | – | – | – | – | – | 54.9 | 0.5 (≈ 1.37 µM) | 16 (≈ 43.9 µM) | 16 (≈ 43.9 µM) | 63.1 | 46.7
O=C1O/C(=C\c2ccc(-c3ccccc3)cc2)C(O)=C1c1cccc(Cl)c1 [Example 69] | – | – | – | – | – | – | 18.7 | 0.25 (≈ 0.667 µM) | 2 (≈ 5.34 µM) | 1 (≈ 2.67 µM) | 50.7 | –
CCOC(=O)c1cccc(C2=C(O)C(=Cc3cccc4ccccc34)OC2=O)c1 [Example 75] | >25 (E); >25 (S) μg/mL | – | 18 | 32 (≈ 82.8 µM) | 64 (≈ 166 µM) | >128 | – | – | – | – | – | –
O=C1O/C(=C\c2cccc3ccccc23)C(O)=C1c1cccc(C=NO)c1 [Example 77] | >25 (S) μg/mL | – | 9 | 64 (≈ 179 µM) | >128 | 64 (≈ 179 µM) | – | – | – | – | – | –
O=C1O/C(=C\c2cccc(C(F)(F)F)c2)C(O)=C1c1ccc(-c2ccccc2)c(F)c1 [Example 106] | – | – | – | – | – | – | 37.5 | 0.25 (≈ 0.586 µM) | 2 (≈ 4.69 µM) | 2 (≈ 4.69 µM) | – | 21.1
O=C1O/C(=C\c2ccccc2-c2ccc(Cl)cc2)C(O)=C1c1ccc(Cl)cc1 [Example 137] | – | – | – | – | – | – | 44 | 2 (≈ 4.89 µM) | 8 (≈ 19.5 µM) | 8 (≈ 19.5 µM) | – | 41.5
O=C1O/C(=C\c2ccc(Cl)cc2)C(O)=C1c1ccc(-c2ccccc2)c(F)c1 [Example 138] | – | – | – | – | – | – | 35.6 | 0.5 (≈ 1.27 µM) | 4 (≈ 10.2 µM) | 4 (≈ 10.2 µM) | – | 12.7
O=C1O/C(=C\c2ccc(-c3ccccc3)cc2)C(O)=C1c1csc2ccccc12 [Example 143] | – | – | – | – | – | – | 25.2 | 1 (≈ 2.52 µM) | 8 (≈ 20.2 µM) | 8 (≈ 20.2 µM) | – | –
O=C1O/C(=C\c2ccc(-c3ccccc3)cc2)C(O)=C1c1cccs1 [Example 144] | – | – | – | – | – | – | 57.7 | 2 (≈ 5.77 µM) | 16 (≈ 46.2 µM) | 16 (≈ 46.2 µM) | – | –
